# Data published in paper PMC12040169 (PLOS Biology, 2025).
# Assay: in vitro
# Settings: human, hela cells
row,Structure (SMILES),"viability at 28.5 h, 10 µM"
1,CNC(=O)Oc1ccc(C2(C)SCCS2)cc1 [CBK023078],98.9%

# Same assay, conditions: human, hela cells, % viability
row,Structure (SMILES),"viability at 28.5 h, 10 µM"
1,Cc1cnc(C(=O)OCc2cc(=O)n3ccsc3n2)cn1 [CBK296978],95.5%
2,FC(F)(F)c1ccc(N2CCNCC2)nc1OCc1ccc2c(c1)OCCO2 [CBK003994A],113%
3,O=C1COc2ccccc2CCCCC2(CCCN(C(=O)CCN3CCCC3=O)C2)CN1 (stereo not shown) [CBK291998],103%
4,O=C(COc1nc2cc3c(nc2o1)CCC3)c1ccccc1 [CBK269407],75.5%
5,Cc1cc(C)c(S(=O)(=O)Nc2ccccc2C(=O)NCc2ccco2)c(C)c1 [CBK266382],98.2%
6,CCC(CNC(=O)c1coc(COc2ccc3sc(C)nc3c2)n1)OC (stereo not shown) [CBK307248],72.3%
7,O=C(CCC(=O)Nc1ccc(F)cc1)N/N=C/c1ccc(O)cc1O [CBK261766],112%
8,O=C(c1ccccc1)C1(CO)COCc2nccn21 (stereo not shown) [CBK009980],88.7%
9,Cc1ccc(-c2ccc(N3CCN(C(=O)c4ccco4)CC3)nc2)cc1C [CBK037775],106%
10,N#Cc1c(NC(=O)CCn2cnnn2)sc2c1CCC2 [CBK270041],93.5%
11,CN1C[C@@H](NC(=O)Nc2ccccc2)C[C@H]1c1nc(-c2ccccc2)no1 [CBK288877],124%
12,CC(=O)OCc1c(C)cc(C)c(CN(C)C(C)c2ccncn2)c1C (stereo not shown) [CBK307315],95.1%
13,Cc1cc(I)ccc1S(=O)(=O)NCc1ccccn1 [CBK262155],106%
14,CCN(CC)S(=O)(=O)c1cccc(-n2sc3ccccc3c2=O)c1 [CBK116501],96.2%
15,Brc1ccccc1OCCc1ccccc1 [CBK004519],95.4%
16,Cc1cc(N2CCCN(C(=O)CCCOc3ccccc3)CC2)ccn1 [CBK307052],86.6%
17,O=C(NCCc1ccccc1)C1CCN(C(=O)c2cccc(F)c2)CC1 [CBK307583],82.2%
18,O=C(/C=C/c1ccco1)Nc1cccc2c(NC(=O)/C=C/c3ccco3)cccc12 [CBK264974],99.7%
19,O=C(Cc1ccccc1)N1CCN(c2ncccn2)CC1 [CBK144518],116%
20,COC(=O)C(NC(=O)c1cnc(-c2ccc(Cl)cc2)c(-c2ccc(O)cc2)c1)c1ccccc1 (stereo not shown) [CBK036723],90.6%
21,COC(=O)COc1ccc(C2Nc3c(Cl)ccc(C(=O)O)c3C3C=CCC32)cc1 (stereo not shown) [CBK268961],99.9%

row,Structure (SMILES),"viability at 28.5 h, 10 µM"
1,O=C(O)C1(Cc2cccc(-c3cccs3)c2)CCCNC1 (stereo not shown) [CBK281688],90.5%
2,O=C(Nc1cc2ccccc2c(N2CCNCC2)n1)c1cnccn1 [CBK036346T],95.4%
3,COc1ccc(OCCOCCN2CCOCC2)cc1 [CBK261999],91.3%
4,CC(C)C(=O)Nc1ccc(Oc2ccc(C(=O)O)c(C(=O)O)c2)cc1 [CBK263463],86.4%
5,O=S(=O)(c1cc(Cl)ccc1Cl)N1CCCN(Cc2ccccc2)CC1 [CBK044491],104%
6,Cc1ccn(-c2ccc(N3CCC4(CCOC4)C3)nn2)n1 (stereo not shown) [CBK306302],87.8%
7,COc1ccc(/C=C2\S/C(=N\Cc3ccccc3)N(Cc3ccccc3)C2=O)cc1C(=O)O [CBK262715],104%
8,CNS(=O)(=O)c1ccc(C)c(NC(C)=O)c1C [CBK034426],88.5%
9,O=[N+]([O-])c1cccc(S(=O)(=O)Nc2nnc(C(F)(F)F)s2)c1 [CBK062002],118%
10,COc1ccccc1NC(=O)N1C[C@@H]2C[C@H](C1)c1c(-c3cccs3)ccc(=O)n1C2 [CBK289191],107%
11,N#Cc1ccc(-c2csc(NC(=O)c3ccc(Cl)s3)n2)cc1 [CBK287321],100%
12,Fc1ccc(CSc2nc3ccccc3nc2C(F)(F)F)cc1 [CBK107199],98.6%
13,COc1cc(-c2ccc3ccc(N)nc3n2)cc(OC)c1OC [CBK061866],90.6%
14,NC(=O)c1csc(-c2ccc(F)cc2F)n1 [CBK067749],68.6%
15,Cc1c(C(=O)NCc2ccccn2)nnn1-c1cccc(C(F)(F)F)c1 [CBK107395],92.9%
16,COc1ccc(CCCC(=O)Nc2cc3cccnc3c(Br)n2)cc1 [CBK119486],99.6%
17,COc1ccc(C)cc1S(=O)(=O)N(C)CC(=O)O [CBK267863],106%
18,O=C(O)CCSc1nc2ccccc2n1-c1ccccc1 [CBK264215],100%
19,Cc1ccc(-n2c(=O)[nH]cc(C(=O)Nc3ccc(C)c(F)c3)c2=O)cc1C [CBK287550],97.5%
20,O=C(O)CSc1nnc2n(-c3ccccc3)c3ccccc3n12 [CBK268557],106%
21,COC(=O)c1cc(C)sc1NC(=S)Nc1ccccc1[N+](=O)[O-] [CBK267047],99.9%

row,Structure (SMILES),"viability at 28.5 h, 10 µM"
1,CCc1[nH]nc2c1C(C1C=CCCC1)C(C#N)=C(N)O2 (stereo not shown) [CBK270236],92.9%
2,CC1(C)C2CCC1(CS(=O)(=O)N1CCC(C(N)=O)CC1)C(=O)C2 (stereo not shown) [CBK269499],102%
3,COc1ccccc1OCCOc1cccc(/C=N/n2cnnc2)c1 [CBK263288],94.7%
4,Cc1nn2cc(CNC(=O)C3Cc4ccccc4O3)nc2s1 (stereo not shown) [CBK307498],73.4%
5,COc1cc2c(cc1-c1nccn1CC1CN(C(C)=O)CCO1)CCC2 (stereo not shown) [CBK306850],88.7%
6,COc1ccc(S(=O)(=O)Nc2c(C(=O)N3CCOCC3)sc3ncccc23)cc1OC [CBK050005],108%
7,CC(=O)Nc1ccc(-c2ccc(C(=O)NCCc3ccc(O)cc3)cn2)cc1 [CBK158840],105%
8,CC(C)N(CCOc1nccnc1-c1ccc(OC(F)(F)F)cc1)C(C)C [CBK106848],89.3%
9,O=C(CNS(=O)(=O)Cc1ccccc1[N+](=O)[O-])Nc1ccc(F)cc1 [CBK042228],90%
10,NCC1CCN(c2nc(-c3cc(C(F)(F)F)cc(C(F)(F)F)c3)cnc2N)CC1 [CBK063960],87.3%
11,CC(Nc1cc(N2CCN(S(=O)(=O)N(C)C)CC2)ccc1[N+](=O)[O-])C12CC3CC(CC(C3)C1)C2 (stereo not shown) [CBK265479],115%
12,CSCCC(C(=O)O)N1C(=O)c2ccc(C(=O)O)cc2C1=O (stereo not shown) [CBK265135],110%
13,CS(=O)(=O)c1ccc(CN2C(=O)CC3(CCN(C(=O)c4ccc([N+](=O)[O-])cc4)CC3)C2=O)cc1 [CBK155019],99%
14,O=C(COc1cccc(Cl)c1)N/N=C\c1ccc(C(=O)O)cc1 [CBK262293],102%
15,CCN(CC)C(=O)CN1CCCN(c2cc(OCc3cc(C)on3)ncn2)CC1 [CBK083337T],97%
16,O=C(NCc1ccco1)[C@@H]1C=CCN1C(=O)NCc1ccccc1 [CBK284293],93%
17,O=C(Nc1nc(OCCN2CCCC2=O)cnc1/C=C\c1ccccc1)c1cc2ccccc2s1 [CBK145380],115%
18,CSc1nnc(CC2CCN(C(=O)c3cccc(N)c3)CC2)n1C [CBK307339],77.8%
19,O=C(N[C@H]1C[C@H]2C(=O)NC[C@@H](CCC(=O)N3CCCCC3)N2C1)c1cccc(F)c1 [CBK289011],85%
20,CCN(CC)c1ccc(SC)n1C [CBK020929],104%

# Same assay, conditions: human, hela cells, % viability, bulk resorufin, single well
row,Structure (SMILES),"viability at 28.5 h, 10 µM"
1,O=C1NC(=O)N(c2ccc3c(c2)OCO3)C(=O)/C1=C/c1ccc(OCc2cccc(C(=O)O)c2)cc1 [CBK263805],106%
